Assay results taken from ChEMBL document CHEMBL4665709, “Rational Avoidance of Protease Cleavage Sites and Symmetrical End-Tagging Significantly Enhances the Stability and Therapeutic Potential of Antimicrobial Peptides” (J Med Chem, 2020).
Converted amounts (≈) assume the structure as drawn. Where a SMILES comes first, the peptide text is derived from it.

What was measured:
[1] = Therapeutic index, ratio of MHC for human RBC to geometric mean of peptide MIC for Staphylococcus aureus 11011; format: toxicity; details: human red blood cells (RBC), read-out: TI
Escherichia coli [2] = experiment: Antibacterial activity against Escherichia coli ATCC 25922 after 18 to 24 hrs by CLSI-based broth microdilution method; format: functional; details: time hrs 18-24
Erythrocyte = experiment: Hemolytic activity in human RBC assessed as hemolysis; format: ADME, cell-based
Salmonella typhimurium [3] = experiment: Antibacterial activity against Salmonella typhimurium 14028 after 18 to 24 hrs by CLSI-based broth microdilution method; format: functional, Salmonella enterica subsp. enterica serovar Typhimurium; details: Salmonella enterica, time hrs 18-24
Staphylococcus aureus [4] = experiment: Antibacterial activity against methicillin-resistant Staphylococcus aureus 43300 after 18 to 24 hrs by CLSI-based broth microdilution method; format: functional; details: time hrs 18-24
Escherichia coli [5] = experiment: Antibacterial activity against Escherichia coli UB1005 after 18 to 24 hrs by CLSI-based broth microdilution method; format: functional; details: time hrs 18-24
[6] = Therapeutic index, ratio of MHC for human RBC to geometric mean of peptide MIC for Staphylococcus epidermidis ATCC 12228; format: toxicity; details: human red blood cells (RBC), read-out: TI
[7] = tested on: Staphylococcus epidermidis; experiment: Antibacterial activity against Staphylococcus epidermidis ATCC 12228 after 18 to 24 hrs by CLSI-based broth microdilution method; format: functional; details: time hrs 18-24
Staphylococcus aureus [8] = experiment: Antibacterial activity against Staphylococcus aureus ATCC 29213 after 18 to 24 hrs by CLSI-based broth microdilution method; format: functional; details: time hrs 18-24
Enterococcus faecalis = experiment: Antibacterial activity against Enterococcus faecalis ATCC 29212 after 18 to 24 hrs by CLSI-based broth microdilution method; format: functional; details: time hrs 18-24
Salmonella typhimurium [9] = experiment: Antibacterial activity against Salmonella typhimurium 7731 after 18 to 24 hrs by CLSI-based broth microdilution method; format: functional, Salmonella enterica subsp. enterica serovar Typhimurium; details: Salmonella enterica, time hrs 18-24
[10] = Therapeutic index, ratio of MHC for human RBC to geometric mean of peptide MIC for Escherichia coli UB1005; format: toxicity; details: human red blood cells (RBC), read-out: TI
Salmonella enterica = experiment: Antibacterial activity against Salmonella choleraesuis 503 after 18 to 24 hrs by CLSI-based broth microdilution method; format: functional; details: time hrs 18-24
Streptococcus agalactiae = experiment: Antibacterial activity against Streptococcus agalactiae H92 after 18 to 24 hrs by CLSI-based broth microdilution method; format: functional; details: time hrs 18-24
[11] = Therapeutic index, ratio of MHC for human RBC to geometric mean of peptide MIC for Salmonella typhimurium 7731; format: toxicity; details: human red blood cells (RBC), read-out: TI
[12] = Cytotoxicity against mouse RAW264.7 cells assessed as cell viability at 128 uM by MTT assay relative to control; format: cell-based; details: read-out: Activity
[13] = Therapeutic index, ratio of MHC for human RBC to geometric mean of peptide MIC for Salmonella typhimurium 14028; format: toxicity; details: human red blood cells (RBC), read-out: TI
Staphylococcus aureus [14] = experiment: Antibacterial activity against Staphylococcus aureus 11011 after 18 to 24 hrs by CLSI-based broth microdilution method; format: functional; details: time hrs 18-24
[15] = Therapeutic index, ratio of MHC for human RBC to geometric mean of peptide MIC for Streptococcus agalactiae H92; format: toxicity; details: human red blood cells (RBC), read-out: TI
[16] = Therapeutic index, ratio of MHC for human RBC to geometric mean of peptide MIC for Escherichia coli ATCC 25922; format: toxicity; details: human red blood cells (RBC), read-out: TI
[17] = Therapeutic index, ratio of MHC for human RBC to geometric mean of peptide MIC for Enterococcus faecalis ATCC 29212; format: toxicity; details: human red blood cells (RBC), read-out: TI
[18] = Hemolytic activity in human RBC assessed as hemolysis at 1 to 128 uM relative to control; format: ADME, cell-based, Erythrocyte; details: human red blood cells (RBC), dose 1-128 µM, read-out: Activity
[19] = Antibacterial activity against Salmonella pullorum 7913 after 18 to 24 hrs by CLSI-based broth microdilution method; format: functional, Salmonella enterica subsp. enterica serovar Pullorum; details: Salmonella enterica, time hrs 18-24
[20] = Therapeutic index, ratio of MHC for human RBC to geometric mean of peptide MIC for methicillin-resistant Staphylococcus aureus 43300; format: toxicity; details: human red blood cells (RBC), read-out: TI
[21] = Therapeutic index, ratio of MHC for human RBC to geometric mean of peptide MIC for Staphylococcus aureus ATCC 29213; format: toxicity; details: human red blood cells (RBC), read-out: TI
[22] = Therapeutic index, ratio of MHC for human RBC to geometric mean of peptide MIC for Salmonella pullorum 7913; format: toxicity; details: human red blood cells (RBC), read-out: TI
[23] = Cytotoxicity against HEK-293T cells assessed as cell viability at 128 uM by MTT assay relative to control; format: cell-based; details: human, read-out: Activity
[24] = Therapeutic index, ratio of MHC for human RBC to geometric mean of peptide MIC for Salmonella choleraesuis 503; format: toxicity; details: human red blood cells (RBC), read-out: TI

SMILES	selectivity ratio [1]	MIC (Escherichia coli [2]) [µM]	MHC (Erythrocyte) [µM]	MIC (Salmonella typhimurium [3]) [µM]	MIC (Staphylococcus aureus [4]) [µM]	MIC (Escherichia coli [5]) [µM]	selectivity ratio [6]	MIC [7] [µM]	MIC (Staphylococcus aureus [8]) [µM]	MIC (Enterococcus faecalis) [µM]	MIC (Salmonella typhimurium [9]) [µM]	selectivity ratio [10]	MIC (Salmonella enterica) [µM]	MIC (Streptococcus agalactiae) [µM]	selectivity ratio [11]	viability at 128 µM [12] [%]	selectivity ratio [13]	MIC (Staphylococcus aureus [14]) [µM]	selectivity ratio [15]	selectivity ratio [16]	also measured
CC(C)[C@H](N)C(=O)N[C@@H](CS)C(=O)N[C@@H](CCCNC(=N)N)C(=O)N[C@@H](CCCCN)C(=O)N1CCC[C@H]1C(=O)N[C@H](C(=O)N[C@H](C(=O)N[C@@H](CS)C(=O)N[C@@H](CCCNC(=N)N)C(=O)N[C@@H](CCCCN)C(=O)N1CCC[C@H]1C(=O)N[C@H](C(=O)N[C@H](C(=O)N[C@@H](CS)C(=O)N[C@@H](CCCNC(=N)N)C(=O)N[C@@H](CCCCN)C(=O)N1CCC[C@H]1C(=O)N[C@H](C(N)=O)C(C)C)C(C)C)C(C)C)C(C)C)C(C)C (H-VCRKPVVCRKPVVCRKPV-NH2)	2	8 (≈ 16.5 µg/mL)	> 128	8 (≈ 16.5 µg/mL)	> 64	16 (≈ 33.1 µg/mL)	2	> 64	> 64	> 64	16 (≈ 33.1 µg/mL)	6.35	> 64	> 64	6.35	> 90	6.35	> 64	2	6.35	selectivity ratio [17]: 2; hemolysis at up to 128 µM [18]: < 5%; MIC [19]: > 64 µM; selectivity ratio [20]: 2; selectivity ratio [21]: 2; selectivity ratio [22]: 6.35; viability at 128 µM [23]: > 90%; selectivity ratio [24]: 6.35
CC[C@H](C)[C@H](N)C(=O)N[C@H](C(=O)N[C@H](C(=O)N[C@@H](CS)C(=O)N[C@@H](CCCNC(=N)N)C(=O)N[C@@H](CCCCN)C(=O)N1CCC[C@H]1C(=O)N[C@H](C(=O)N[C@H](C(=O)N[C@@H](CS)C(=O)N[C@@H](CCCNC(=N)N)C(=O)N[C@@H](CCCCN)C(=O)N1CCC[C@H]1C(=O)N[C@H](C(=O)N[C@H](C(=O)N[C@@H](CS)C(=O)N[C@@H](CCCNC(=N)N)C(=O)N[C@@H](CCCCN)C(=O)N1CCC[C@H]1C(=O)N[C@H](C(=O)N[C@H](C(=O)N[C@@H](CS)C(=O)N[C@@H](CCCNC(=N)N)C(=O)N[C@@H](CCCCN)C(=O)N1CCC[C@H]1C(=O)N[C@H](C(=O)N[C@H](C(=O)N[C@@H](CS)C(=O)N[C@@H](CCCNC(=N)N)C(=O)N[C@@H](CCCCN)C(=O)N1CCC[C@H]1C(=O)N[C@H](C(=O)N[C@H](C(=O)N[C@H](C(N)=O)[C@@H](C)CC)[C@@H](C)CC)[C@@H](C)CC)[C@@H](C)CC)[C@@H](C)CC)[C@@H](C)CC)[C@@H](C)CC)[C@@H](C)CC)[C@@H](C)CC)[C@@H](C)CC)[C@@H](C)CC)[C@@H](C)CC)[C@@H](C)CC (H-IIICRKPIICRKPIICRKPIICRKPIICRKPIII-NH2)	2	4 (≈ 16.1 µg/mL)	> 128	4 (≈ 16.1 µg/mL)	> 64	2 (≈ 8.05 µg/mL)	2	> 64	> 64	> 64	4 (≈ 16.1 µg/mL)	32	4 (≈ 16.1 µg/mL)	> 64	32	> 90	32	> 64	2	32	selectivity ratio [17]: 2; hemolysis at up to 128 µM [18]: < 5%; MIC [19]: 8 µM (≈ 32.2 µg/mL); selectivity ratio [20]: 2; selectivity ratio [21]: 2; selectivity ratio [22]: 32; viability at 128 µM [23]: > 90%; selectivity ratio [24]: 32
CC[C@H](C)[C@H](N)C(=O)N[C@H](C(=O)N[C@H](C(=O)N[C@@H](CS)C(=O)N[C@@H](CCCNC(=N)N)C(=O)N[C@@H](CCCCN)C(=O)N1CCC[C@H]1C(=O)N[C@H](C(=O)N[C@H](C(=O)N[C@@H](CS)C(=O)N[C@@H](CCCNC(=N)N)C(=O)N[C@@H](CCCCN)C(=O)N1CCC[C@H]1C(=O)N[C@H](C(=O)N[C@H](C(=O)N[C@H](C(N)=O)[C@@H](C)CC)[C@@H](C)CC)[C@@H](C)CC)[C@@H](C)CC)[C@@H](C)CC)[C@@H](C)CC)[C@@H](C)CC (H-IIICRKPIICRKPIII-NH2)	2	8 (≈ 15.1 µg/mL)	> 128	32 (≈ 60.5 µg/mL)	> 64	8 (≈ 15.1 µg/mL)	2	> 64	> 64	> 64	32 (≈ 60.5 µg/mL)	6.35	32 (≈ 60.5 µg/mL)	64 (≈ 121 µg/mL)	6.35	> 90	6.35	> 64	2	6.35	selectivity ratio [17]: 2; hemolysis at up to 128 µM [18]: < 5%; MIC [19]: 32 µM (≈ 60.5 µg/mL); selectivity ratio [20]: 2; selectivity ratio [21]: 2; selectivity ratio [22]: 6.35; viability at 128 µM [23]: > 90%; selectivity ratio [24]: 6.35
CC[C@H](C)[C@H](N)C(=O)N[C@@H](CS)C(=O)N[C@@H](CCCNC(=N)N)C(=O)N[C@@H](CCCCN)C(=O)N1CCC[C@H]1C(=O)N[C@H](C(=O)N[C@H](C(=O)N[C@@H](CS)C(=O)N[C@@H](CCCNC(=N)N)C(=O)N[C@@H](CCCCN)C(=O)N1CCC[C@H]1C(=O)N[C@H](C(=O)N[C@H](C(=O)N[C@@H](CS)C(=O)N[C@@H](CCCNC(=N)N)C(=O)N[C@@H](CCCCN)C(=O)N1CCC[C@H]1C(=O)N[C@H](C(N)=O)[C@@H](C)CC)[C@@H](C)CC)[C@@H](C)CC)[C@@H](C)CC)[C@@H](C)CC (H-ICRKPIICRKPIICRKPI-NH2)	2	8 (≈ 17.2 µg/mL)	> 128	8 (≈ 17.2 µg/mL)	> 64	4 (≈ 8.6 µg/mL)	2	> 64	> 64	> 64	8 (≈ 17.2 µg/mL)	11.3	16 (≈ 34.4 µg/mL)	> 64	11.3	> 90	11.3	> 64	2	11.3	selectivity ratio [17]: 2; hemolysis at up to 128 µM [18]: < 5%; MIC [19]: 64 µM (≈ 138 µg/mL); selectivity ratio [20]: 2; selectivity ratio [21]: 2; selectivity ratio [22]: 11.3; viability at 128 µM [23]: > 90%; selectivity ratio [24]: 11.3
CC[C@H](C)[C@H](N)C(=O)N[C@H](C(=O)N[C@@H](CS)C(=O)N[C@@H](CCCNC(=N)N)C(=O)N[C@@H](CCCCN)C(=O)N1CCC[C@H]1C(=O)N[C@H](C(=O)N[C@H](C(=O)N[C@@H](CS)C(=O)N[C@@H](CCCNC(=N)N)C(=O)N[C@@H](CCCCN)C(=O)N1CCC[C@H]1C(=O)N[C@H](C(=O)N[C@H](C(N)=O)[C@@H](C)CC)[C@@H](C)CC)[C@@H](C)CC)[C@@H](C)CC)[C@@H](C)CC (H-IICRKPIICRKPII-NH2)	2	16 (≈ 26.6 µg/mL)	> 128	32 (≈ 53.3 µg/mL)	> 64	16 (≈ 26.6 µg/mL)	2	> 64	> 64	> 64	32 (≈ 53.3 µg/mL)	4	> 64	> 64	4	> 90	4	> 64	2	4	selectivity ratio [17]: 2; hemolysis at up to 128 µM [18]: < 5%; MIC [19]: > 64 µM; selectivity ratio [20]: 2; selectivity ratio [21]: 2; selectivity ratio [22]: 4; viability at 128 µM [23]: > 90%; selectivity ratio [24]: 4
